The values that follow come from patent publication US11168095B2, “ASK1 inhibiting agents” (BIOGEN MA INC., priority 2017, dated 2021).

Bounds are passed on as bounds.

The target of assay [1] is ASK1 T838 auto phosphorylation in HEK-293T cells (Homo sapiens (Human), UniProt Q99683). Put plainly: ASK1 (AUTO PHOS T838) assay, MSD format. Format: cell-based. The following applies: HEK 293T cells transfected with ASK1-V5 full length plasmid, compounds 1 hr at 37° C.; read-out: IC50. As for the experimental part: The plates were incubated at 37° C. overnight. Media on plates was changed to OPTI-MEM, serum free media and cells were transfected with 9 μg of ASK1-V5 tagged full length plasmid using Lipofectamine 2000 (Invitrogen) and the plates were incubated at 37° C. overnight. Cells were trypsinized, counted on Nexcellometer and plated into 96 well tissue culture plates with 100,000 cells/well and 200 μL media. Cells were incubated for 4 hr at 37° C. then ASK1 compounds were added using a HP 300e. Compounds were tested at 20 μM with 3 fold, 10 point dilution points then incubated for 1 hr at 37° C. A lysis buffer (Cell Signaling) was prepared with protease and phosphatase inhibitor and maintained at 4° C. until use. Media from cells was discarded and 120 μL of cold lysis buffer was added to the cells, the plate was shaken 4° C. for 1 hr. Lysate was mixed using Apricot liquid handler; aspirating up and down 16 times at high speed using 50 μL volume. […] Plates were then incubated on a plate shaker overnight at 4° C. Plates were washed 3× with MSD wash buffer and 50 μL of rabbit anti-pASK1 T838 antibody was added to the wells and incubated for 2 hr at room temperature on a plate shaker. Plates were then washed and 50 μL of goat anti-rabbit sulfa-tag (1:500 dilution) was added to wells, and incubated for 1 hr at room temperature on a plate shaker. […] Plates were immediately read on a MSD Instrument Reader where chemoluminecense signal was measured. Data was analyzed using Graph Pad or Genedata, the data was normalized and plotted, % activity versus log of compound concentration. The IC50 values were obtained from a 4 parameter fit.
ASK1 T838 auto phosphorylation in HEK-293T cells, sequence (Q99683 whole entry): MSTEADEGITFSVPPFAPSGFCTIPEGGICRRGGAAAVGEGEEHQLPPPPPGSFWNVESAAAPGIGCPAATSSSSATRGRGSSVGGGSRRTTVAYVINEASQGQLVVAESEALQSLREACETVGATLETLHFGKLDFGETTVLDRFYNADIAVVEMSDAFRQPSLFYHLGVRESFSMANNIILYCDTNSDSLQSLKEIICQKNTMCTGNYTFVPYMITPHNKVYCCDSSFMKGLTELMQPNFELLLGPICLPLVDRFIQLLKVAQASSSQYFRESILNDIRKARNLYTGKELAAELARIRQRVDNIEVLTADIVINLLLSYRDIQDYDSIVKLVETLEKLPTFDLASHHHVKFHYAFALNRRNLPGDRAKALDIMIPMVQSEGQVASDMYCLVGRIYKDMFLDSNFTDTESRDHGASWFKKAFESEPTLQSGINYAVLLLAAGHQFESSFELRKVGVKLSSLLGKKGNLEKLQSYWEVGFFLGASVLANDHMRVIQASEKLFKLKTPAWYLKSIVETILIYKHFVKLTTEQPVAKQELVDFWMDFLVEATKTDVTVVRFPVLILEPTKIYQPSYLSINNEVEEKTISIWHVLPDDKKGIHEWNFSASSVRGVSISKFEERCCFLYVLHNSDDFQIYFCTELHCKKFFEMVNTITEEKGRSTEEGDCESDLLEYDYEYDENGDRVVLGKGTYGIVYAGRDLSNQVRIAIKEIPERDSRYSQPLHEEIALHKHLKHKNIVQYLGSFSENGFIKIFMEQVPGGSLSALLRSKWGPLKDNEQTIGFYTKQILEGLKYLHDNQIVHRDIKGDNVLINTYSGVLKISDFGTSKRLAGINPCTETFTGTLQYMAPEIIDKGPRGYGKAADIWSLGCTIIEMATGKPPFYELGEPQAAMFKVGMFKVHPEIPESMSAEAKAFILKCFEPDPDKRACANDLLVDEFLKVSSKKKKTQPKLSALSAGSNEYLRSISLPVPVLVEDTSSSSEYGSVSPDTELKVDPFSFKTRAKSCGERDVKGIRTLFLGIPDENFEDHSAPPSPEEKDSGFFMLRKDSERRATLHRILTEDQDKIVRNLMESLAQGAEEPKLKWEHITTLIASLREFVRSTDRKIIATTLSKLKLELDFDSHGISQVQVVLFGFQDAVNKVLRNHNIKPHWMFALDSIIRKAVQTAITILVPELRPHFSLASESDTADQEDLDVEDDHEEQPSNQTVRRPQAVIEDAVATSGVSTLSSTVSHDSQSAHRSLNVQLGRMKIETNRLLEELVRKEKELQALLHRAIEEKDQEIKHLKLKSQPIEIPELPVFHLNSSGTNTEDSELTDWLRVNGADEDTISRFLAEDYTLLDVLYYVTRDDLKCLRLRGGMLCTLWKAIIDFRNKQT

A further assay concerns the target ASK1/MAP3K5 (Homo sapiens (Human), UniProt Q99683). Put plainly: ASK1/MAP3K5 assay by Reaction Biology Corp. Format: biochemical. The following applies: 20 μM myelin basic protein (MBP), 10 μM ATP. The protocol: ASK1/MAP3K5 was used as the protein kinase and 20 μM of myelin basic protein (MBP) and 10 μM ATP were used as the substrate.

ASK1/MAP3K5, sequence (Q99683 whole entry): as above

As a reminder, the IC50 is the concentration at which inhibition is half-maximal. Turning to `O=C1Nc2cccc(n2)-c2nncn2CCCCOc2ccc(-c3cnn(C4CCC4)c3)cc21` [Example 35, 5^5-(1-Cyclobutyl-1H-pyrazol-4-yl)-1^4H-6-oxa-3-aza-2(2,6)-pyridina-1(3,4)-triazola-5(1,2)-benzenacyclodecaphan-4-one], the IC50 is below 1000 nM in assay [1] and below 100 nM against ASK1/MAP3K5.
Regarding `CC(C)n1cc(-c2ccc3c(c2)C(=O)Nc2cccc(n2)-c2nncn2CCCCO3)cn1` [Example 36, 5^5-(1-Isopropyl-1H-pyrazol-4-yl)-1^4H-6-oxa-3-aza-2(2,6)-pyridina-1(3,4)-triazola-5(1,2)-benzenacyclodecaphan-4-one], the IC50 is below 1000 nM in assay [1] and below 100 nM at ASK1/MAP3K5.
The matching figures for `Cc1c(-c2ccc3c(c2)C(=O)Nc2cccc(n2)-c2nncn2CCCCO3)cnn1C` [Example 37, 5^5-(1,5-Dimethyl-1H-pyrazol-4-yl)-1^4H-6-oxa-3-aza-2(2,6)-pyridina-1(3,4)-triazola-5(1,2)-benzenacyclodecaphan-4-one]: below 1000 nM and below 100 nM.
`O=C1Nc2cccc(n2)-c2nncn2CCCCOc2ccc(-c3cnn(C4COC4)c3)cc21` [Example 38, 5^5-(1-(Oxetan-3-yl)-1H-pyrazol-4-yl)-1^4H-6-oxa-3-aza-2(2,6)-pyridina-1(3,4)-triazola-5(1,2)-benzenacyclodecaphan-4-one]: the IC50 was below 1000 nM in assay [1] and below 100 nM on ASK1/MAP3K5.
`CN1CCn2ncc(-c3ccc4c(c3)C(=O)Nc3cccc(n3)-c3nncn3CCCCO4)c2C1` [Example 40, 5^5-(5-Methyl-4,5,6,7-tetrahydropyrazolo[1,5-a]pyrazin-3-yl)-1^4H-6-oxa-3-aza-2(2,6)-pyridina-1(3,4)-triazola-5(1,2)-benzenacyclodecaphan-4-one]: the IC50 in assay [1] was below 1000 nM; on ASK1/MAP3K5, below 100 nM.
The matching figures for `O=C1Nc2cccc(n2)-c2nncn2CCCCOc2ccc(-n3ccnc3)cc21` [Example 41, 5^5-(1H-Imidazol-1-yl)-1^4H-6-oxa-3-aza-2(2,6)-pyridina-1(3,4)-triazola-5(1,2)-benzenacyclodecaphan-4-one]: below 1000 nM and below 100 nM.
In the case of `Cc1nccn1-c1ccc2c(c1)C(=O)Nc1cccc(n1)-c1nncn1CCCCO2` [Example 43, 5^5-(2-Methyl-1H-imidazol-1-yl)-1^4H-6-oxa-3-aza-2(2,6)-pyridina-1(3,4)-triazola-5(1,2)-benzenacyclodecaphan-4-one], the IC50 in assay [1] was below 1000 nM; against ASK1/MAP3K5, below 100 nM.
`Cc1ccn(-c2ccc3c(c2)C(=O)Nc2cccc(n2)-c2nncn2CCCCO3)n1` [Example 45, 5^5-(3-Methyl-1H-pyrazol-1-yl)-1^4H-6-oxa-3-aza-2(2,6)-pyridina-1(3,4)-triazola-5(1,2)-benzenacyclodecaphan-4-one]: the IC50 was below 1000 nM in assay [1] and below 100 nM at ASK1/MAP3K5.
Turning to `Cc1ccnn1-c1ccc2c(c1)C(=O)Nc1cccc(n1)-c1nncn1CCCCO2` [Example 45a, 5^5-(5-Methyl-1H-pyrazol-1-yl)-1^4H-6-oxa-3-aza-2(2,6)-pyridina-1(3,4)-triazola-5(1,2)-benzenacyclodecaphan-4-one], the IC50 in assay [1] lay in the range of 1000 to 10000 nM; at ASK1/MAP3K5, 100 to 1000 nM.
Consider `Cc1cc(C)n(-c2ccc3c(c2)C(=O)Nc2cccc(n2)-c2nncn2CCCCO3)n1` [Example 46, 5^5-(3,5-Dimethyl-1H-pyrazol-1-yl)-1^4H-6-oxa-3-aza-2(2,6)-pyridina-1(3,4)-triazola-5(1,2)-benzenacyclodecaphan-4-one], for which the IC50 was below 1000 nM in assay [1] and below 100 nM at ASK1/MAP3K5.
As for `NCc1ccc2c(c1)C(=O)Nc1cccc(n1)-c1nncn1CCCCO2` [Example 47, 5^5-(Aminomethyl)-1^4H-6-oxa-3-aza-2(2,6)-pyridina-1(3,4)-triazola-5(1,2)-benzenacyclodecaphan-4-one], the figures for the IC50 (in assay [1]; against ASK1/MAP3K5) were below 1000 nM and below 100 nM, respectively.
In the same order, the values of `CN(C)Cc1ccc2c(c1)C(=O)Nc1cccc(n1)-c1nncn1CCCCO2` [Example 48, 5^5-((Dimethylamino)methyl)-1^4H-6-oxa-3-aza-2(2,6)-pyridina-1(3,4)-triazola-5(1,2)-benzenacyclodecaphan-4-one] are below 1000 nM and below 100 nM.
Take `CC(C)(O)c1ccc2c(c1)C(=O)Nc1cccc(n1)-c1nncn1CCCCO2` [Example 49, 5^5-(2-Hydroxypropan-2-yl)-1^4H-6-oxa-3-aza-2(2,6)-pyridina-1(3,4)-triazola-5(1,2)-benzenacyclodecaphan-4-one]: the values for the IC50 (in assay [1]; on ASK1/MAP3K5) were below 1000 nM and below 100 nM, respectively.
The matching figures for `COC(C)(C)c1ccc2c(c1)C(=O)Nc1cccc(n1)-c1nncn1CCCCO2` [Example 50, 5^5-(2-Methoxypropan-2-yl)-1^4H-6-oxa-3-aza-2(2,6)-pyridina-1(3,4)-triazola-5(1,2)-benzenacyclodecaphan-4-one]: below 1000 nM and below 100 nM.
With `CC(C)(C#N)c1ccc2c(c1)C(=O)Nc1cccc(n1)-c1nncn1CCCCO2` [Example 51, 2-Methyl-2-(4-oxo-1^4H-6-oxa-3-aza-2(2,6)-pyridina-1(3,4)-triazola-5(1,2)-benzenacyclodecaphane-5^5-yl)propanenitrile], the IC50 in assay [1] was below 1000 nM.
Consider `CN(C)CCn1cc(-c2cc3c(cc2C(F)(F)F)OCCCCn2cnnc2-c2cccc(n2)NC3=O)cn1` [Example 77, 5^5-(1-(2-(Dimethylamino)ethyl)-1H-pyrazol-4-yl)-5^4-(trifluoromethyl)-1^4H-6-oxa-3-aza-2(2,6)-pyridina-1(3,4)-triazola-5(1,2)-benzenacyclodecaphan-4-one], for which the IC50 in assay [1] is below 1000 nM.
In the case of `C[C@H]1CCCOc2cc(F)c(N3CCN(C)CC3)cc2C(=O)Nc2cccc(n2)-c2nncn21` [Example 105, (S)-5^4-Fluoro-10-methyl-5^5-(4-methylpiperazin-1-yl)-1^4H-6-oxa-3-aza-2(2,6)-pyridina-1(3,4)-triazola-5(1,2)-benzenacyclodecaphan-4-one], the IC50 in assay [1] was below 1000 nM.
For the molecule `C[C@H]1CCCOc2cc(F)c(-c3ccncc3F)cc2C(=O)Nc2cccc(n2)-c2nncn21` [Example 109, (S)-5^4-Fluoro-5^5-(3-fluoropyridin-4-yl)-10-methyl-1^4H-6-oxa-3-aza-2(2,6)-pyridina-1(3,4)-triazola-5(1,2)-benzenacyclodecaphan-4-one], the IC50 in assay [1] is below 1000 nM.
With `C[C@H]1CCOc2cc(F)c(N3CCOCC3)cc2C(=O)Nc2cccc(n2)-c2nncn2C1` [Example 126, (S)-5^4-Fluoro-9-methyl-5^5-morpholino-1^4H-6-oxa-3-aza-2(2,6)-pyridina-1(3,4)-triazola-5(1,2)-benzenacyclodecaphan-4-one], in assay [1], the IC50 was below 1000 nM.
Consider `C[C@H]1CCOc2cc(F)c(-c3cccnc3F)cc2C(=O)Nc2cccc(n2)-c2nncn2C1` [Example 128, (S)-5^4-Fluoro-5^5-(2-fluoropyridin-3-yl)-9-methyl-1^4H-6-oxa-3-aza-2(2,6)-pyridina-1(3,4)-triazola-5(1,2)-benzenacyclodecaphan-4-one], for which the IC50 in assay [1] is below 1000 nM.
`C[C@H]1CCOc2cc(F)c(-c3ccc(F)nc3)cc2C(=O)Nc2cccc(n2)-c2nncn2C1` [Example 129, (S)-5^4-Fluoro-5^5-(6-fluoropyridin-3-yl)-9-methyl-1^4H-6-oxa-3-aza-2(2,6)-pyridina-1(3,4)-triazola-5(1,2)-benzenacyclodecaphan-4-one]: the IC50 in assay [1] was below 1000 nM.
With `C[C@H]1CCOc2cc(F)c(-c3cnn4c3CN(C)CC4)cc2C(=O)Nc2cccc(n2)-c2nncn2C1` [Example 131, (S)-5^4-Fluoro-9-methyl-5^5-(5-methyl-4,5,6,7-tetrahydropyrazolo[1,5-a]pyrazin-3-yl)-1^4H-6-oxa-3-aza-2(2,6)-pyridina-1(3,4)-triazola-5(1,2)-benzenacyclodecaphan-4-one], the IC50 in assay [1] is below 1000 nM.
Regarding `C[C@@H]1CCOc2cc(F)c(-c3cnn4c3CN(C)CC4)cc2C(=O)Nc2cccc(n2)-c2nncn2C1` [Example 132, (R)-5^4-Fluoro-9-methyl-5^5-(5-methyl-4,5,6,7-tetrahydropyrazolo[1,5-a]pyrazin-3-yl)-1^4H-6-oxa-3-aza-2(2,6)-pyridina-1(3,4)-triazola-5(1,2)-benzenacyclodecaphan-4-one], the IC50 in assay [1] was below 1000 nM.
Consider `Cc1cn(-c2cc3c(cc2F)OCC[C@H](C)Cn2cnnc2-c2cccc(n2)NC3=O)cn1` [Example 133, (S)-5^4-Fluoro-9-methyl-5^5-(4-methyl-1H-imidazol-1-yl)-1^4H-6-oxa-3-aza-2(2,6)-pyridina-1(3,4)-triazola-5(1,2)-benzenacyclodecaphan-4-one], for which the IC50 in assay [1] is below 1000 nM.
`CN1CCn2ncc(-c3cc4c(cc3F)OCC/C=C\Cn3cnnc3-c3cccc(n3)NC4=O)c2C1` [Example 182, (Z)-5^4-Fluoro-5^5-(5-methyl-4,5,6,7-tetrahydropyrazolo[1,5-a]pyrazin-3-yl)-1^4H-6-oxa-3-aza-2(2,6)-pyridina-1(3,4)-triazola-5(1,2)-benzenacycloundecaphan-9-en-4-one]: the IC50 in assay [1] was below 1000 nM.
